Experimental findings from patent US12257243B2, “5-hydroxy-7-oxabicyclo[2.2.1]heptane-2-carboxamide derivatives for inducing chondrogenesis for treating joint damage” (NOVARTIS AG, priority 2018, dated 2025) are described below.

The test system of the assay is ALP in normal human articular chondrocytes (NHACs). The assay can be described thus: Alkaline Phosphatase (ALP) activity assay (staining and quantitation) in NHACs, prevention of chondrocyte hypertrophy. It counts as cell-based. To be noted: human IL-1 beta 10 ng/mL, 12 days; for IC50: Fast Blue RR staining, high content imaging, read-out: ALP in NHAC IC50; for Emax / ALP in NHAC (% Efficacy): value in parentheses; for Emax: read-out: ALP in NHAC (% Efficacy). The protocol:
The compounds of the present invention were evaluated in the Alkaline Phosphatase (ALP) activity assay to determine the ability of the compounds to prevent chondrocyte hypertrophy in normal human articular chondrocytes (NHACs).
Normal human articular chondrocytes (NHACs) were purchased from PromoCell (Heidelberg, Germany) and grown in Chondrocyte Growth Medium (CGM; Lonza, Walkersville, Md.).
NHACs were expanded in Chondrocyte Growth Medium (CGM) from Lonza until they reached a 60-80% confluency. To initiate differentiation, 7,500 cells were plated/well with indicated test compound dose in 384-well Cell Carrier Ultra plates (Perkin Elmer) with DMEM (SH30022—HyClone) containing 10% FBS (35-015-CV—Corning), 1% Pen/Strep antibiotics (SV30010—HyClone), and 1% Normocin (50 mg/mL—InvivoGen). Cells with test compounds were incubated at 37° C., 5% CO2 for 5 hours and then added human IL-1 beta (AF-200-1B—Peprotech) to each well at a final concentration of 10 ng/mL and incubated at 37° C., 5% CO2 for 12 days.
To detect the presence of hypertrophic cells, NHACs were fixed with 4% paraformaldehyde and Hoechst 33342 (Invitrogen) dye for 30 minutes, rinsed in PBS, then stained with Fast Blue RR Salt (F0500—Sigma) with Naphthol AS-MX Phosphate Alkaline Solution, 0.25% (855—Sigma-Aldrich).
The staining was imaged by fluorescent microscopy, using the 561 nm wavelength, and/or quantified by high content imaging with the Image press Confocal (Molecular Devices, Sunnyvale, Calif.). Data analyses were performed with a customized multiwavelength cell-scoring application.

Read-outs that look alike come from different tables or passages of the source.

One may read the IC50 as the concentration needed to halve the response being measured. As for `CCOc1ccc(NC(=O)[C@@H]2[C@@H](c3cn(C)nc3C(F)(F)F)[C@H]3O[C@@H]2C[C@@H]3O)cc1C(F)(F)F` (racemic) [Example 44, rac-(1R,2R,3S,4R,5S)—N-(4-ethoxy-3-(trifluormethyl)phenyl)-5-hydroxy-3-(1-methyl-3-(trifluoromethyl)-1H-pyrazol-4-yl)-7-oxabicyclo[2.2.1]heptane-2-carboxamide], for the setting “Chondrocyte, 288 h”, the IC50 worked out at 14 µM and the Emax came out at 89%.
Regarding `CCOc1cc(C(F)(F)F)cc(NC(=O)[C@@H]2[C@@H](c3cccc(C(F)(F)F)c3)[C@H]3O[C@@H]2C[C@@H]3O)n1` (racemic) [Example 9, rac-(1R 2R,3S,4R,5S)—N-(6-ethoxy-4-(trifluoromethyl)pyridin-2-yl-5-hydroxy-3-(3-(trifluoromethyl)phenyl)-7-oxabicyclo[2.2.1]heptane-2-carboxamide], where the note is “Chondrocyte, 288 h”, the IC50 was determined as 12 µM and the Emax turned out to be 108%.
For `O=C(Nc1cc(C(F)(F)F)ccn1)[C@@H]1[C@@H](c2cccc(C(F)(F)F)c2)[C@H]2O[C@@H]1C[C@@H]2O` (racemic) [Example 4, rac-(1R,2R,3S,4R,5S)-5-hydroxy-3-(3-trifluoromethyl)phenyl)-N-(4-(trifluoromethyl)pyridin-2-yl)-7-oxabicyclo[2.2.1]heptane-2-carboxamide], for the setting “Chondrocyte, 288 h”, the IC50 was determined as 7.1 µM and the Emax came to 90%.
The like results for `Cc1cc(C(F)(F)F)cc(NC(=O)[C@@H]2[C@@H](c3cccc(C(F)(F)F)c3)[C@H]3O[C@@H]2C[C@@H]3O)n1` (racemic) [Example 8, rac-(1R,2R,3S,4R,5S)-5-hydroxy-N-(6-methyl-4-(trifluoromethyl)pyridin-2-yl)-3-(3-(trifluoromethyl)phenyl)-7-oxabicyclo[2.2.1]heptane-2-carboxamide] were, in that order, 17 µM and 100%.
The matching figures for `COc1cc([C@H]2[C@H]3O[C@H](C[C@@H]3O)[C@@H]2C(=O)Nc2cc(C(F)(F)F)ccc2F)ccn1` (racemic) [Example 76, rac-(1R,2R,3S,4R,5S)—N-(2-fluoro-5-(trifluoromethyl)phenyl)-5-hydroxy-3-(2-methoxypyridin-4-yl)-7-oxabicyclo[2.2.1]heptane-2-carboxamide]: 7.2 µM and 53%.
For the compound `O=C(Nc1ccc(C(F)(F)F)cn1)[C@@H]1[C@@H](c2cccc(C(F)(F)F)c2)[C@H]2O[C@@H]1C[C@@H]2O` (racemic) [Example 26, rac-(1R,2R,3S,4R,5S)-5-hydroxy-3-(3-(trifluoromethyl)phenyl)-N-(5-(trifluoromethyl)pyridin-2-yl-7-oxabicyclo[2.2.1]heptane-2-carboxamide], under “Chondrocyte, 288 h”, the IC50 is 11 µM and the Emax is 112%.
The like results for `Cn1cc([C@H]2[C@H]3O[C@H](C[C@@H]3O)[C@@H]2C(=O)Nc2cccc(C(F)(F)F)c2F)c(C(F)(F)F)n1` (racemic) [Example 57, rac-(1R,2R,3S,4R,5S)—N-(2-fluoro-3-(trifluoromethyl)phenyl)-5-hydroxy-3-(1-methyl-3-(trifluoromethyl-1H-pyrazol-4-yl)-7-oxabicyclo[2.2.1]heptane-2-carboxamide] were, in that order, more than 30 µM and 50%.
In the case of `O=C(Nc1cccc(C(F)(F)F)c1F)[C@@H]1[C@@H](c2cccc(C(F)(F)F)c2)[C@H]2O[C@@H]1C[C@@H]2O` (racemic) [Example 15, rac-(1R,2R,3S,4R,5S)—N-(2-fluoro-3-(trifluoromethyl)phenyl)-5-hydroxy-3-(3-(trifluoromethyl)phenyl)-7-oxabicyclo[2.2.1]heptane-2-carboxamide], under “Chondrocyte, 288 h”, the IC50 stood at 7 µM and the Emax was determined as 105%.
`Cn1cc([C@H]2[C@H]3O[C@H](C[C@@H]3O)[C@@H]2C(=O)Nc2cc(C(F)(F)F)ccc2C#N)c(C(F)(F)F)n1` (single isomer, unassigned) [Example 49b, (1R,2R,3S,4R,5N-(2-cyano-5-(trifluoromethyl)phenyl)-5-hydroxy-3-(1-methyl-3-(trifluoromethyl)-1H-pyrazol-4-yl)-7-oxabicyclo[2.2.1]heptane-2-carboxamide or (1S,2S,3R,4S,5R)—N-(2-cyano-5-(trifluoromethyl)phenyl)-5-hydroxy-3-(1-methyl-3-(trifluoromethyl)-1H-pyrazol-4-yl)-7-oxabicyclo[2.2.1]heptane-2-carboxamide]: the IC50 was 23 µM and the “ALP in NHAC (% Efficacy)” value is reported as 54%.
For `Cn1nc(C(F)(F)F)cc1[C@H]1[C@H]2O[C@H](C[C@@H]2O)[C@@H]1C(=O)Nc1cc(C(F)(F)F)ccc1C#N` (racemic) [Example 72, rac-(1R,2R,3S,4R,5S)—N-(2-cyano-5-(trifluoromethyl)phenyl)-5-hydroxy-3-(1-methyl-3-(trifluoromethyl)-1H-pyrazol-5-yl)-7-oxabicyclo[2.2.1]heptane-2-carboxamide], for the setting “Chondrocyte, 288 h”, the IC50 is 2.1 µM and the Emax came to 72%.
`O=C(Nc1cccc(C(F)(F)F)c1)[C@@H]1[C@@H](c2ccnc(C(F)(F)F)c2)[C@H]2O[C@@H]1C[C@@H]2O` (racemic) [Example 63, rac-(1R,2R,3S,4R,5S)-5-hydroxy-N-(3-(trifluoromethyl)phenyl)-3-(2-(trifluoromethyl)pyridin-4-yl)-7-oxabicyclo[2.2.1]heptane-2-carboxamide]: for the setting “Chondrocyte, 288 h”, the IC50 was determined as 18 µM and the Emax was determined as 44%.
The like results for `COc1ccc(NC(=O)[C@@H]2[C@@H](c3cn(C)nc3C(F)(F)F)[C@H]3O[C@@H]2C[C@@H]3O)cc1C(F)(F)F` (racemic) [Example 31, rac-(1R,2R,3S,4R,5S)-5-hydroxy-N-(4-methoxy-3-(trifluoromethyl)phenyl)-3-(1-methyl-3-(trifluoromethyl)-1H-pyrazol-4-yl)-7-oxabicyclo[2.2.1]heptane-2-carboxamide] were, in that order, 3.1 µM and 102%.
For `Cn1cc([C@H]2[C@H]3O[C@H](C[C@@H]3O)[C@@H]2C(=O)Nc2cc(C(F)(F)F)c(Cl)cn2)c(C(F)(F)F)n1` (single isomer, unassigned) [Example 36b, (1R 2R,3S,4R,5S)—N-(5-chloro-4-(trifluoromethyl)pyridin-2-yl)-5-hydroxy-3-(1-methyl-3-(trifluoromethyl)-1H-pyrazol-4-yl)-7-oxabicyclo[2.2.1]heptane-2-carboxamide or (1S,2S,3R,4S,5R)—N-(5-chloro-4-(trifluoromethyl)pyridin-2-yl)-5-hydroxy-3-(1-methyl-3-(trifluoromethyl)-1H-pyrazol-4-yl)-7-oxabicyclo[2.2.1]heptane-2-carboxamide], the 50% inhibitory concentration (IC50) is 17 µM and the “ALP in NHAC (% Efficacy)” value came to 83%.
For `CC(C)n1cc([C@H]2[C@H]3O[C@H](C[C@@H]3O)[C@@H]2C(=O)Nc2cc(C(F)(F)F)ccn2)c(C(F)(F)F)n1` (racemic) [Example 86, rac-(1R,2R,3S,4R,5S)-5-hydroxy-3-(1-isopropyl-3-(trifluoromethyl)-1H-pyrazol-4-yl)-N-(4-(trifluoromethyl)pyridin-2-yl)-7-oxabicyclo[2.2.1]heptane-2-carboxamide], under “Chondrocyte, 288 h”, the IC50 worked out at 11 µM and the Emax was 83%.
On to `Cn1cc([C@H]2[C@H]3O[C@H](C[C@@H]3O)[C@@H]2C(=O)Nc2cc(C(F)(F)F)ccn2)c(C(F)(F)F)n1` (single isomer, unassigned) [Example 38a, (1R,2R,3S,4R,5S)-5-hydroxy-3-(1-methyl-3-(trifluoromethyl)-1H-pyrazol-4-yl)-N-(4-(trifluoromethyl)pyridin-2-yl)-7-oxabicyclo[2.2.1]heptane-2-carboxamide or (1S,2S,3R,4S,5R)-5-hydroxy-3-(1-methyl-3-(trifluoromethyl)-1H-pyrazol-4-yl)-N-(4-(trifluoromethyl)pyridin-2-yl)-7-oxabicyclo[2.2.1]heptane-2-carboxamide], for which the IC50 is 5.9 µM and the “ALP in NHAC (% Efficacy)” value is on record as 81%.
On to `Cc1cc(NC(=O)[C@@H]2[C@@H](c3cc(C(F)(F)F)nn3C)[C@H]3O[C@@H]2C[C@@H]3O)cc(C(F)(F)F)c1` (racemic) [Example 71, rac-(1R,2R,3S,4R,5S)-5-hydroxy-3-(1-methyl-3-(trifluoromethyl)-1H-pyrazol-5-yl)-N-(3-methyl-5-(trifluoromethyl)phenyl)-7-oxabicyclo[2.2.1]heptane-2-carboxamide], for which, where the note is “Chondrocyte, 288 h”, the IC50 is more than 30 µM and the Emax was found to be 29%.
For the compound `COc1cc([C@@H]2[C@@H]3O[C@@H](C[C@H]3O)[C@H]2C(=O)Nc2cc(C(F)(F)F)ccc2C#N)ccn1` (single isomer, unassigned) [Example 78a, (1R,2R,3S,4R,5)-N-(2-cyano-5-(trifluoromethyl)phenyl)-5-hydroxy-3-(2-methoxypyridin-4-yl)-7-oxabicyclo[2.2.1]heptane-2-carboxamide or (1S,2S,3R,4S,5R)—N-(2-cyano-5-(trifluoromethyl)phenyl)-5-hydroxy-3-(2-methoxypyridin-4-yl)-7-oxabicyclo[2.2.1]heptane-2-carboxamide], the concentration for half-maximal inhibition (IC50) was 1.1 µM and the “ALP in NHAC (% Efficacy)” value came out at 100%.
